Results from BindingDB's records for doi:10.1016/s0960-894x(01)00493-0 (National Cancer Institute-Frederick, 2001).

Biological target: Urokinase-type plasminogen activator (Homo sapiens) (UniProt P00749)
Test: Compound was tested for microPa) Urokinase-type plasminogen activator from human urine

Ki: 500 µM
SMILES: CC[C@H](C)[C@@H]1NC(=O)[C@@H]2CCCN2C(=O)[C@@H]2CCCN2C(=O)[C@H]([C@@H](C)CC)NC(=O)[C@H](CO)NC(=O)[C@H](CCCCN)NC(=O)[C@H]([C@@H](C)O)NC(=O)[C@@H]2CSSC[C@H](NC1=O)C(=O)N[C@@H](Cc1ccccc1)C(=O)N1CCC[C@H]1C(=O)N[C@@H](CC(=O)O)C(=O)NCC(=O)N[C@@H](CCCNC(=N)N)C(=O)N2
